Assay results as given in PMC8632988, “Inhibition of SYK and cSrc kinases can protect bone and cartilage in preclinical models of osteoarthritis and rheumatoid arthritis” (Scientific Reports, 2021).

Experiments:
Assay in all cases: Kinase selectivity profile assay
Assay type in all cases: biochemical
NEK3 = target: T1, NEK3 (Homo sapiens, UniProt P51956); conditions: 500 nM; relative to DMSO; read-out: Residual enzymatic activity
T1 construct: purchased Reaction Biology Corporation
How it was run: (§1)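 Radiometric kinase assay run by a standard protocol. Unbound phosphate was removed by washing filters in phosphoric acid, and product radioactivity gave percent remaining kinase activity versus DMSO vehicle reactions. Run in duplicate.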

ERBB2/HER2 = target: T2, ERBB2/HER2 (Homo sapiens, UniProt P04626); conditions: 500 nM; relative to DMSO; read-out: Residual enzymatic activity
T2 construct: purchased Reaction Biology Corporation
How it was run: as §1

CK2a = target: T3, CK2a (Homo sapiens, UniProt P68400); conditions: 500 nM; relative to DMSO; read-out: Residual enzymatic activity
T3 construct: purchased Reaction Biology Corporation
How it was run: as §1

PDGFRa = target: T4, PDGFRa (Homo sapiens, UniProt P16234)
T4 construct: purchased Reaction Biology Corporation (Malvern, PA, USA)
How it was run: as §1

PKCd = target: T5, PKCd (Homo sapiens, UniProt Q05655); conditions: 500 nM; relative to DMSO; read-out: Residual enzymatic activity
T5 construct: purchased Reaction Biology Corporation
How it was run: as §1

ROCK2 = target: T6, ROCK2 (Homo sapiens, UniProt O75116); conditions: 500 nM; relative to DMSO; read-out: Residual enzymatic activity
T6 construct: purchased Reaction Biology Corporation
How it was run: as §1

SSTK/TSSK6 = target: T7, SSTK/TSSK6 (Homo sapiens, UniProt Q9BXA6); conditions: 500 nM; relative to DMSO; read-out: Residual enzymatic activity
T7 construct: purchased Reaction Biology Corporation
How it was run: as §1

CK1epsilon = target: T8, CK1epsilon (Homo sapiens, UniProt P49674); conditions: 500 nM; relative to DMSO; read-out: Residual enzymatic activity
T8 construct: purchased Reaction Biology Corporation
How it was run: as §1

PLK1 = target: T9, PLK1 (Homo sapiens, UniProt P53350); conditions: 500 nM; relative to DMSO; read-out: Residual enzymatic activity
T9 construct: purchased Reaction Biology Corporation
How it was run: as §1

MYO3b = target: T10, MYO3b (Homo sapiens, UniProt Q8WXR4); conditions: 500 nM; relative to DMSO; read-out: Residual enzymatic activity
T10 construct: purchased Reaction Biology Corporation
How it was run: as §1

STK25/YSK1 = target: T11, STK25/YSK1 (Homo sapiens, UniProt O00506); conditions: 500 nM; relative to DMSO; read-out: Residual enzymatic activity
T11 construct: purchased Reaction Biology Corporation
How it was run: as §1

FLT1/VEGFR1 = target: T12, FLT1/VEGFR1 (Homo sapiens, UniProt P17948); conditions: 500 nM, relative to DMSO
T12 construct: purchased Reaction Biology Corporation
How it was run: as §1

ALK2/ACVR1 = target: T13, ALK2/ACVR1 (Homo sapiens, UniProt Q04771); conditions: 500 nM; relative to DMSO; read-out: Residual enzymatic activity
T13 construct: purchased Reaction Biology Corporation
How it was run: as §1

PBK/TOPK = target: T14, PBK/TOPK (Homo sapiens, UniProt Q96KB5); conditions: 500 nM; relative to DMSO; read-out: Residual enzymatic activity
T14 construct: purchased Reaction Biology Corporation
How it was run: as §1

ABL2/ARG = target: T15, ABL2/ARG (Homo sapiens, UniProt P42684)
T15 construct: purchased Reaction Biology Corporation (assay service)
How it was run: as §1

PKG1b = target: T16, PKG1b (Homo sapiens, UniProt Q13976); conditions: 500 nM; relative to DMSO; read-out: Residual enzymatic activity
T16 construct: purchased Reaction Biology Corporation
How it was run: as §1

CAMKK2 = target: T17, CAMKK2 (Homo sapiens, UniProt Q96RR4); conditions: 500 nM; relative to DMSO; read-out: Residual enzymatic activity
T17 construct: purchased Reaction Biology Corporation
How it was run: as §1

ULK3 = target: T18, ULK3 (Homo sapiens, UniProt Q6PHR2); conditions: 500 nM; relative to DMSO; read-out: Residual enzymatic activity
T18 construct: purchased Reaction Biology Corporation
How it was run: as §1

STK39/STLK3 = target: T19, STK39/STLK3 (Homo sapiens, UniProt Q9UEW8); conditions: 500 nM; relative to DMSO; read-out: Residual enzymatic activity
T19 construct: purchased Reaction Biology Corporation
How it was run: as §1

WNK1 = target: T20, WNK1 (Homo sapiens, UniProt Q9H4A3); conditions: 500 nM; relative to DMSO; read-out: Residual enzymatic activity
T20 construct: purchased Reaction Biology Corporation
How it was run: as §1

WNK2 = target: T21, WNK2 (Homo sapiens, UniProt Q9Y3S1); conditions: 500 nM; relative to DMSO; read-out: Residual enzymatic activity
T21 construct: purchased Reaction Biology Corporation
How it was run: as §1

GLK/MAP4K3 = target: T22, GLK/MAP4K3 (Homo sapiens, UniProt Q8IVH8); conditions: 500 nM; relative to DMSO; read-out: Residual enzymatic activity
T22 construct: purchased Reaction Biology Corporation
How it was run: as §1

CDK2/Cyclin A1 = target: T23, CDK2/Cyclin A1 (Homo sapiens, UniProt P24941); conditions: 500 nM; relative to DMSO; read-out: Residual enzymatic activity
T23 construct: purchased Reaction Biology Corporation
How it was run: as §1

HIPK1 = target: T24, HIPK1 (Homo sapiens, UniProt Q86Z02); conditions: 500 nM; relative to DMSO; read-out: Residual enzymatic activity
T24 construct: purchased Reaction Biology Corporation
How it was run: as §1

MLK2/MAP3K10 = target: T25, MLK2/MAP3K10 (Homo sapiens, UniProt Q02779)
T25 construct: purchased Reaction Biology Corporation (assay service)
How it was run: as §1

DMPK2 = target: T26, DMPK2 (Homo sapiens, UniProt Q6DT37); conditions: 500 nM; relative to DMSO; read-out: Residual enzymatic activity
T26 construct: purchased Reaction Biology Corporation
How it was run: as §1

ROCK1 = target: T27, ROCK1 (Homo sapiens, UniProt Q13464); conditions: 500 nM; relative to DMSO; read-out: Residual enzymatic activity
T27 construct: purchased Reaction Biology Corporation
How it was run: as §1

RSK2 = target: T28, RSK2 (Homo sapiens, UniProt P51812); conditions: 500 nM; relative to DMSO; read-out: Residual enzymatic activity
T28 construct: purchased Reaction Biology Corporation
How it was run: as §1

PIM2 = target: T29, PIM2 (Homo sapiens, UniProt Q9P1W9); conditions: 500 nM; relative to DMSO; read-out: Residual enzymatic activity
T29 construct: purchased Reaction Biology Corporation
How it was run: as §1

ALK6/BMPR1B = target: T30, ALK6/BMPR1B (Homo sapiens, UniProt O00238); conditions: 500 nM; relative to DMSO; read-out: Residual enzymatic activity
T30 construct: purchased Reaction Biology Corporation
How it was run: as §1

TNK1 = target: T31, TNK1 (Homo sapiens, UniProt Q13470); conditions: 500 nM; relative to DMSO; read-out: Residual enzymatic activity
T31 construct: purchased Reaction Biology Corporation
How it was run: as §1

PLK3 = target: T32, PLK3 (Homo sapiens, UniProt Q9H4B4); conditions: 500 nM; relative to DMSO; read-out: Residual enzymatic activity
T32 construct: purchased Reaction Biology Corporation
How it was run: as §1

MLK1/MAP3K9 = target: T33, MLK1/MAP3K9 (Homo sapiens, UniProt P80192)
T33 construct: purchased Reaction Biology Corporation (assay service)
How it was run: as §1

ZAP70 = target: T34, ZAP70 (Homo sapiens, UniProt P43403); conditions: 500 nM; relative to DMSO; read-out: Residual enzymatic activity
T34 construct: purchased Reaction Biology Corporation
How it was run: as §1

STK38L/NDR2 = target: T35, STK38L/NDR2 (Homo sapiens, UniProt Q9Y2H1); conditions: 500 nM; relative to DMSO; read-out: Residual enzymatic activity
T35 construct: purchased Reaction Biology Corporation
How it was run: as §1

MUSK = target: T36, MUSK (Homo sapiens, UniProt O15146); conditions: 500 nM; relative to DMSO; read-out: Residual enzymatic activity
T36 construct: purchased Reaction Biology Corporation
How it was run: as §1

TSSK2 = target: T37, TSSK2 (Homo sapiens, UniProt Q96PF2); conditions: 500 nM; relative to DMSO; read-out: Residual enzymatic activity
T37 construct: purchased Reaction Biology Corporation
How it was run: as §1

TTBK2 = target: T38, TTBK2 (Homo sapiens, UniProt Q6IQ55); conditions: 500 nM; relative to DMSO; read-out: Residual enzymatic activity
T38 construct: purchased Reaction Biology Corporation
How it was run: as §1

LYN = target: T39, LYN (Homo sapiens, UniProt P07948)
T39 construct: purchased Reaction Biology Corporation (assay service)
How it was run: as §1

[1] = 500 nM, relative to DMSO, read-out: Residual enzymatic activity
[2] = 10-dose mode, threefold serial dilution from 10 μM

T39 sequence (P07948 whole entry): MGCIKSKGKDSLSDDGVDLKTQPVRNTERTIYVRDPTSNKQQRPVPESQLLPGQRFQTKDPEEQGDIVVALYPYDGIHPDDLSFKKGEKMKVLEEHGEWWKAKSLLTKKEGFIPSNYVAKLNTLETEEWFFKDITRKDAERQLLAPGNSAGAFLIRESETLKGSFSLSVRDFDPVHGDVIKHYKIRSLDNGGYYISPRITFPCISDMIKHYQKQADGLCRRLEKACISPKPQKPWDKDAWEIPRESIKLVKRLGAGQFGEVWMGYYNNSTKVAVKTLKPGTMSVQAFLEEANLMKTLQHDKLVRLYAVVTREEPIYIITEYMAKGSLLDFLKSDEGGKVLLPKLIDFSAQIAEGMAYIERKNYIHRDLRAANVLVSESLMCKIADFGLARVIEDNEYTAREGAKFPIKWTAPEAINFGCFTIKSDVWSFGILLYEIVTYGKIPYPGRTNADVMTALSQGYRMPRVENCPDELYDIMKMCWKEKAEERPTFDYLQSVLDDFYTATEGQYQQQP
T25 sequence (Q02779 whole entry): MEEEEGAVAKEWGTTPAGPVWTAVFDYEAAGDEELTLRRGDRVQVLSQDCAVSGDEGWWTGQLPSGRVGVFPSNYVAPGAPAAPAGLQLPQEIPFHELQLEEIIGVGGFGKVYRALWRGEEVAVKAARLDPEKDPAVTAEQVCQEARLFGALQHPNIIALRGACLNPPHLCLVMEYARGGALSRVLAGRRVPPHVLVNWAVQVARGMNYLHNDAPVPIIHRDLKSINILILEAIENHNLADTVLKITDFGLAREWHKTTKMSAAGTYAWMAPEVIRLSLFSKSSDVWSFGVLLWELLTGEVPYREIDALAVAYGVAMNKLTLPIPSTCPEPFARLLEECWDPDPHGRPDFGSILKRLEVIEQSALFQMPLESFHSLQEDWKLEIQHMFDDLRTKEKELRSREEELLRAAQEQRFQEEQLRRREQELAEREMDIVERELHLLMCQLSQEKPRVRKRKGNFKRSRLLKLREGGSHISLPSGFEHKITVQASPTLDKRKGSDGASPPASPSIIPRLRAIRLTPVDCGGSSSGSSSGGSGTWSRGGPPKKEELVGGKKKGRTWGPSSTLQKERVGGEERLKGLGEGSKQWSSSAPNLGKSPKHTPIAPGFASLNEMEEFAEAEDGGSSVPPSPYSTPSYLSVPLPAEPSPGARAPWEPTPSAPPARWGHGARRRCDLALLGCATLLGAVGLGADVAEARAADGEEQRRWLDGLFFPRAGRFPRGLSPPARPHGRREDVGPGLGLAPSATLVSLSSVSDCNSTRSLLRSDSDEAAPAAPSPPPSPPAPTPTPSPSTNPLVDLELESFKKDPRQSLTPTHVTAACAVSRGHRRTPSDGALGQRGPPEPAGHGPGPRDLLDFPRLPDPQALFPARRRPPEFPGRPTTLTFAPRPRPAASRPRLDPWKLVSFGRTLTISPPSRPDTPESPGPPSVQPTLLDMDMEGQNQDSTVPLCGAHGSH
T15 sequence (P42684 whole entry): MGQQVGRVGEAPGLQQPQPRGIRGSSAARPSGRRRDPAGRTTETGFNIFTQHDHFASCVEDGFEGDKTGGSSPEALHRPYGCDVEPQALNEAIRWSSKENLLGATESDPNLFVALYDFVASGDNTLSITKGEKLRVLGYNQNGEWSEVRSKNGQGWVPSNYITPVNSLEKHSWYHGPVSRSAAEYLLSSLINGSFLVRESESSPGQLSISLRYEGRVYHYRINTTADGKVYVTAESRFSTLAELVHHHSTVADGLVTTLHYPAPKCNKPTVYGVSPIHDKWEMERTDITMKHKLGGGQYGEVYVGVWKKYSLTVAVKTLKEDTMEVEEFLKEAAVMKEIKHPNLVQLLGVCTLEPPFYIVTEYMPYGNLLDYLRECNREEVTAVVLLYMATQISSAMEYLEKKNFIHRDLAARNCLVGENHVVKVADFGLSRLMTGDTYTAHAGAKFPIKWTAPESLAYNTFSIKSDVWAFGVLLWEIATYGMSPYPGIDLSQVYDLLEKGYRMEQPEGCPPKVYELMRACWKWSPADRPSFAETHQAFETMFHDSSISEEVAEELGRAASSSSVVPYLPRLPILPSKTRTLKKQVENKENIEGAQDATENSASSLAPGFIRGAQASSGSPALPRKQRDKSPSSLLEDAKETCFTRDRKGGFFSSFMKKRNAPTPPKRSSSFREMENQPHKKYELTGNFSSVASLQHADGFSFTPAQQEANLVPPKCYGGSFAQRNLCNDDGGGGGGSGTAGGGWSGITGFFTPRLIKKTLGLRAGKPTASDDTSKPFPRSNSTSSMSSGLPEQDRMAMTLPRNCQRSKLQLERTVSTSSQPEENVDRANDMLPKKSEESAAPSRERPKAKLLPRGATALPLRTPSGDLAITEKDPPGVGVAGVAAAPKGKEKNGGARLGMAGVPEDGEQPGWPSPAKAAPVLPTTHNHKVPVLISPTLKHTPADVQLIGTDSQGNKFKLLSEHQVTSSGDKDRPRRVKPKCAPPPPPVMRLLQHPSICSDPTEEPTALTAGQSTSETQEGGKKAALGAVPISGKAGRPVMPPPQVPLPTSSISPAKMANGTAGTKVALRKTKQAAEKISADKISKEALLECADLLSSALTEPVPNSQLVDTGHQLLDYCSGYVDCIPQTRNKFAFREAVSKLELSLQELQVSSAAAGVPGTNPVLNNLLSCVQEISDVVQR
T12 sequence (P17948 27-1338): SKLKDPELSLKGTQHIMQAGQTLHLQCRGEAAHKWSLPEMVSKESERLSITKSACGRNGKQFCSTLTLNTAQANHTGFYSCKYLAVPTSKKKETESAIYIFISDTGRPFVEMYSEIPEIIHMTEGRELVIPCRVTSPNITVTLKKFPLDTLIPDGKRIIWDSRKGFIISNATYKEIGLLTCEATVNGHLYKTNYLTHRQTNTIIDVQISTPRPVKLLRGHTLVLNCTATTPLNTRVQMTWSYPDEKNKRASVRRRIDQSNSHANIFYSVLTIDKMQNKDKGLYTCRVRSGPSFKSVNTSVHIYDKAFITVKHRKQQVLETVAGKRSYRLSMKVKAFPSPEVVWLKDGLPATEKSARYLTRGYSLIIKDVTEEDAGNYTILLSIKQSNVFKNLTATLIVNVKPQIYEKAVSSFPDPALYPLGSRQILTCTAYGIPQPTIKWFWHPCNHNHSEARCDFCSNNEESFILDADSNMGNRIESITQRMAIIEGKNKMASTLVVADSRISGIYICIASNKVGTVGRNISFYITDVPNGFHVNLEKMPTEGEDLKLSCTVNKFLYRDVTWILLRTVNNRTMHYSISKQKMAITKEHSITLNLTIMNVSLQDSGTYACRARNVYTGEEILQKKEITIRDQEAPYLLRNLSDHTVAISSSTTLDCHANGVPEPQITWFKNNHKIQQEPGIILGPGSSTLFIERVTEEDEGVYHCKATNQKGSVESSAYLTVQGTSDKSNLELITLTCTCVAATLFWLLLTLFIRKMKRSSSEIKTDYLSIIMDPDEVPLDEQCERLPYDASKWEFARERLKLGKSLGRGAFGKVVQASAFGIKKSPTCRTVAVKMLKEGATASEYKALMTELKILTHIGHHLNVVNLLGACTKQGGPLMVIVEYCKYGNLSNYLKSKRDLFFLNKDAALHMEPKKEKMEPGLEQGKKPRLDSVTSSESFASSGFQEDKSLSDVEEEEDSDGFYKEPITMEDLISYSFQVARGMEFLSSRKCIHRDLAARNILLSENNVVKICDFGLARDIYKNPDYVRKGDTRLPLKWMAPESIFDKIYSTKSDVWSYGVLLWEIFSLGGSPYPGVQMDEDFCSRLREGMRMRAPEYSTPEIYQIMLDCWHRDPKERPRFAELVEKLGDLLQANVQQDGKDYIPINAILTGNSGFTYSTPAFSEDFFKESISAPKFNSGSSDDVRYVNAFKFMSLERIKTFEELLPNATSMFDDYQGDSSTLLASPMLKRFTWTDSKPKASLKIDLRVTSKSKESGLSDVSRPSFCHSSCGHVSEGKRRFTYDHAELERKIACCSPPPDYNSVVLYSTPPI
T4 sequence (P16234 24-1089): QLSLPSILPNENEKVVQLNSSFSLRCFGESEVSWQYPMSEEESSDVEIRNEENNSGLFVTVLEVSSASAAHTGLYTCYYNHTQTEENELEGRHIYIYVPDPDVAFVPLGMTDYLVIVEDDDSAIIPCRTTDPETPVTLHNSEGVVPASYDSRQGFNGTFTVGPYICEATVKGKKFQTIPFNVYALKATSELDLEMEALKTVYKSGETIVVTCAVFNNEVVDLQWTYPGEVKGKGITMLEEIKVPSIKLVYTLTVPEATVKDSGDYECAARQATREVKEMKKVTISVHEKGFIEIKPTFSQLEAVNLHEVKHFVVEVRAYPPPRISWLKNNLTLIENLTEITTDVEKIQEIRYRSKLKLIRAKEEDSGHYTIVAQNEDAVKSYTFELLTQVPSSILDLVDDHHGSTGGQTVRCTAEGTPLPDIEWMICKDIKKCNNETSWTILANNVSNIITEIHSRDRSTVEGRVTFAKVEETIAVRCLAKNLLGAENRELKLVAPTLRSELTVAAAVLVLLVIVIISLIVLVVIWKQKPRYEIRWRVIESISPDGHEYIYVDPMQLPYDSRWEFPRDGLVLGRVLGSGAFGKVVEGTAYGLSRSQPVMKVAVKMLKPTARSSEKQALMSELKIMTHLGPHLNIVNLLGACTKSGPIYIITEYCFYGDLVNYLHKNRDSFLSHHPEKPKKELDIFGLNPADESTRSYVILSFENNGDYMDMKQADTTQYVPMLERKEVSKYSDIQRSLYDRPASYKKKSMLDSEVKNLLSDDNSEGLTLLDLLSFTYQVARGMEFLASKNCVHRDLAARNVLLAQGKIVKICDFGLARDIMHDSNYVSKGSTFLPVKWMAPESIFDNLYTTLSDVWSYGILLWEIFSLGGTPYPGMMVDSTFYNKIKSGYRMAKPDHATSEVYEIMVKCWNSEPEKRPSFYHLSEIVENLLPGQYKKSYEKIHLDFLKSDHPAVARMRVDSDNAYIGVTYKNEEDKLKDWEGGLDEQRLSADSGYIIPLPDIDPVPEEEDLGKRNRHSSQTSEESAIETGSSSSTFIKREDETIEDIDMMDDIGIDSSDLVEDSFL

COc1cc(Nc2ncnc(Nc3cc4c(cn3)NC(=O)C(C)(C)O4)n2)cc(OC)c1OC [MT-SYK-03]
remaining activity at 0.5 µM (NEK3): 72%
remaining activity at 0.5 µM (ERBB2/HER2): 82.2%
remaining activity at 0.5 µM (CK2a): 94.3%
remaining activity at 0.5 µM (PDGFRa; [1]): 46.4%
IC50 (PDGFRa; [2]): 35.9 nM
remaining activity at 0.5 µM (PKCd): 110%
remaining activity at 0.5 µM (ROCK2): 91.1%
remaining activity at 0.5 µM (SSTK/TSSK6): 103%
remaining activity at 0.5 µM (CK1epsilon): 98%
remaining activity at 0.5 µM (PLK1): 93.4%
remaining activity at 0.5 µM (MYO3b): 95.4%
remaining activity at 0.5 µM (STK25/YSK1): 105%
Residual enzymatic activity (FLT1/VEGFR1): did not inhibit
remaining activity at 0.5 µM (FLT1/VEGFR1; read-out: Residual enzymatic activity): 65.4%
remaining activity at 0.5 µM (ALK2/ACVR1): 241%
remaining activity at 0.5 µM (PBK/TOPK): 102%
remaining activity at 0.5 µM (ABL2/ARG; [1]): 32.3%
IC50 (ABL2/ARG; [2]): 120 nM
remaining activity at 0.5 µM (PKG1b): 93.9%
remaining activity at 0.5 µM (CAMKK2): 97.2%
remaining activity at 0.5 µM (ULK3): 74.9%
remaining activity at 0.5 µM (STK39/STLK3): 107%
remaining activity at 0.5 µM (WNK1): 106%
remaining activity at 0.5 µM (WNK2): 84.6%
remaining activity at 0.5 µM (GLK/MAP4K3): 94.1%
remaining activity at 0.5 µM (CDK2/Cyclin A1): 90.7%
remaining activity at 0.5 µM (HIPK1): 97.4%
remaining activity at 0.5 µM (MLK2/MAP3K10; [1]): 7.5%
IC50 (MLK2/MAP3K10; [2]): 4.3 nM
inhibition at 0.5 µM (MLK2/MAP3K10; read-out: Inhibition at 500 nM): > 90%
remaining activity at 0.5 µM (DMPK2): 96.4%
remaining activity at 0.5 µM (ROCK1): 95.1%
remaining activity at 0.5 µM (RSK2): 104%
remaining activity at 0.5 µM (PIM2): 97.2%
remaining activity at 0.5 µM (ALK6/BMPR1B): 143%
remaining activity at 0.5 µM (TNK1): 44.7%
remaining activity at 0.5 µM (PLK3): 97.6%
remaining activity at 0.5 µM (MLK1/MAP3K9; [1]): 21.5%
IC50 (MLK1/MAP3K9; [2]): 7.8 nM
remaining activity at 0.5 µM (ZAP70): 93.4%
remaining activity at 0.5 µM (STK38L/NDR2): 89.6%
remaining activity at 0.5 µM (MUSK): 79.9%
remaining activity at 0.5 µM (TSSK2): 106%
remaining activity at 0.5 µM (TTBK2): 109%
remaining activity at 0.5 µM (LYN; [1]): 12.5%
IC50 (LYN; [2]): 8.8 nM
inhibition at 0.5 µM (LYN; read-out: Inhibition at 500 nM): > 90%
